This note sets out measurements from patent US9079866B2, “Flap modulators” (JANSSEN PHARMACEUTICA NV, priority 2013, dated 2015).

Assay [1] has as its system leukotriene pathway in human whole blood (LTB4 levels). The assay is described as follows: Human whole blood assay (A23187-stimulated LTB4). Type of assay: cell-based. To be noted: Homo sapiens, read-out: LTB4 IC50 1:1. A digest of the protocol:
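Single-replicate data from at least one healthy donor: compound pre-incubated 15 min at 37° Celsius in 1:1 RPMI-diluted heparinised blood, followed by 30 min calcium ionophore A23187 (7 μg/mL) challenge at 37° Celsius. LTB4 in plasma quantified by kit; IC50 via 4-parameter equation.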

In assay [2] the target is human FLAP (Homo sapiens (Human), UniProt P20292). The assay is described as follows: FLAP binding assay (HTRF format). In short, it runs like this: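 Binding of compounds to FLAP read out as HTRF ratio. Values are the mean of two assay plates, each sample run in duplicate per plate.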
Chain of human FLAP (P20292 whole entry): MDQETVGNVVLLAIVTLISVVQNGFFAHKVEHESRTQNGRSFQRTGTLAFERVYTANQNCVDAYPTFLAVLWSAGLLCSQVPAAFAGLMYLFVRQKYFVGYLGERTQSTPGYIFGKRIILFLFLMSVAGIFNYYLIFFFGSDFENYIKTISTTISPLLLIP
Where [3] appears, read: human whole blood diluted 1:1, A23187-stimulated.
Where [4] appears, read: human whole blood diluted 1:1 in RPMI, A23187-stimulated LTB4.
Setting [5] is: human FLAP wild type, HTRF format, average of two plates, duplicates.

Structures can show the parent of a compound that is named as a salt. Where two headings read alike, the source gives them in different places. Some results are limits rather than exact numbers.

`COc1cccc2nc(-c3ccc(-c4ccccc4S(=O)(=O)NC(C)(C)C)cc3F)cn12` [Example 588, N-tert-Butyl-3′-fluoro-4′-(5-methoxyimidazo[1,2-a]pyridin-2-yl)biphenyl-2-sulfonamide]: the IC50 in assay [1] (setting [3]) was greater than 10000 nM. Also, the Ki in assay [2] (wild type FLAP, HTRF format) was 133 nM.
With `Nc1ncc(-c2ccc(-c3ccccc3S(=O)(=O)N[C@H]3CCCNC3=O)cc2F)cn1` [Example 267, 4′-(2-Aminopyrimidin-5-yl)-3′-fluoro-N-[(3S)-2-oxopiperidin-3-yl]biphenyl-2-sulfonamide trifluoroacetic acid salt], in assay [1] (setting [4]), the IC50 came to 350 nM. The Ki in assay [2] (read-out: FLAP Binding wild type HTRF Ki) was 154 nM.
With `CC(CO)Oc1ncccc1-c1ccc(-c2cnc(N)cn2)c(F)c1` (stereo in doubt) [Example 655, (2R)-2-({3-[4-(5-Aminopyrazin-2-yl)-3-fluorophenyl]pyridin-2-yl}oxy)propan-1-ol], the IC50 in assay [1] (setting [3]) is 1830 nM. The affinity in assay [2] (wild type FLAP, HTRF format) corresponds to a Ki of 503 nM.
Turning to `Nc1ccc(-c2ccc(-c3ccccc3S(=O)(=O)N3CCS(=O)(=O)CC3)cc2F)cn1` [Example 354, 4-((4′-(6-Aminopyridin-3-yl)-3′-fluoro-[1,1′-biphenyl]-2-yl)sulfonyl)thiomorpholine 1,1-dioxide], in assay [1] (setting [4]), the IC50 was 93 nM. The Ki in assay [2] (setting [5]) was found to be 37 nM.
For the molecule `CCC(C)(C)NS(=O)(=O)c1ccccc1-c1ccc(-c2ccc(N)nc2)c(F)c1` [Example 349, 4′-(6-Aminopyridin-3-yl)-3′-fluoro-N-(tert-pentyl)-[1,1′-biphenyl]-2-sulfonamide], the concentration for half-maximal inhibition (IC50) in assay [1] (setting [4]) is 13 nM. The same molecule displayed a Ki in assay [2] (setting [5]) of 1 nM.
As for `NC1CCN(S(=O)(=O)c2ccccc2-c2ccc(-c3cnc4[nH]ccc4n3)c(F)c2)CC1` [Example 381, 1-{[3′-Fluoro-4′-(5H-pyrrolo[2,3-b]pyrazin-2-yl)biphenyl-2-yl]sulfonyl}piperidin-4-amine], in assay [1] (setting [4]), the IC50 turned out to be 141 nM. For the same molecule, in assay [2] (setting [5]), the Ki is 5 nM.
As to `Nc1cnc(-c2ccc(-c3ccccc3C(=O)N3CCC(O)CC3)cc2F)cn1` [Example 514, 1-{[4′-(5-Aminopyrazin-2-yl)-3′-fluorobiphenyl-2-yl]carbonyl}piperidin-4-ol], the IC50 in assay [1] (setting [3]) came to 148 nM. Moreover, the Ki in assay [2] (wild type FLAP, HTRF format) was 132 nM.
As to `Nc1cnc(-c2ccc(-c3cccnc3OC3CCCC3)cc2F)cn1` [Example 402, 5-{4-[2-(Cyclopentyloxy)pyridin-3-yl]-2-fluorophenyl}pyrazin-2-amine], the IC50 in assay [1] (setting [3]) was 522 nM. Also, the affinity in assay [2] (wild type FLAP, HTRF format) corresponds to a Ki of 92 nM.
Turning to `CC(C)SCc1ccccc1-c1ccc(-c2cnc(N)cn2)c(F)c1` [Example 236, 5-(3-Fluoro-2′-{[(1-methylethyl)sulfanyl]methyl}biphenyl-4-yl)pyrazin-2-amine hydrochloride], in assay [1] (setting [4]), the IC50 was determined as 443 nM. The Ki in assay [2] (setting [5]) was 57 nM.
Consider `C[C@@H](CO)NS(=O)(=O)c1ccccc1-c1ccc(-c2cnc3c(c2)OCCN3)c(F)c1` [Example 388, 4′-(3,4-Dihydro-2H-pyrido[3,2-b][1,4]oxazin-7-yl)-3′-fluoro-N-[(1S)-2-hydroxy-1-methylethyl]biphenyl-2-sulfonamide], for which the IC50 in assay [1] (setting [4]) stood at 37 nM. This molecule also came in with a Ki in assay [2] (setting [5]) of 2 nM.
As for `Nc1cnc(-c2ccc(-c3ccccc3S(=O)(=O)N3CCN4CCCC4C3)cc2F)cn1` (racemic) [Example 61, racemic 5-[3-Fluoro-2′-(hexahydropyrrolo[1,2-a]pyrazin-2(1H)-ylsulfonyl)biphenyl-4-yl]pyrazin-2-amine], the concentration for half-maximal inhibition (IC50) in assay [1] (setting [4]) was 117 nM. Affinity in assay [2] (setting [5]) was put at a Ki of 11 nM.
On to `Cc1nc(N)cc(Oc2ccccc2-c2ccc(-c3cnc(N)cn3)c(F)c2)n1` [Example 623, 6-{[4′-(5-Aminopyrazin-2-yl)-3′-fluorobiphenyl-2-yl]oxy}-2-methylpyrimidin-4-amine], for which the IC50 in assay [1] (setting [3]) was determined as 93.5 nM. The molecule also had a Ki in assay [2] (wild type FLAP, HTRF format) of 4.9 nM.
Turning to `CNS(=O)(=O)Cc1ccccc1-c1ccc(-c2cnc(N)cn2)c(F)c1` [Example 220, 1-[4′-(5-Aminopyrazin-2-yl)-3′-fluorobiphenyl-2-yl]-N-methylmethanesulfonamide formic acid salt], the IC50 in assay [1] (setting [4]) is 219 nM. Besides, in assay [2] (setting [5]), the Ki stood at 205 nM.
